Experimental data as given in patent publication US12077503B2, “Substituted cyclic amides and their use as herbicides” (FMC CORPORATION, priority 2015, dated 2024).

Columns and labels:
Type in all cases: in vivo
Kochia (Kochia scoparia) [1] = assay: Test A preemergence; conditions: for Kochia plant response rating: 0 to 100 scale where 0 is no effect and 100 is complete control; for Plant response rating, Kochia: 125 g ai/ha, 0 to 100 scale (0 no effect, 100 complete control)
Description: (§1) Seeds of plant species selected from barnyardgrass (Echinochloa crus-galli), Kochia (Kochia scoparia), ragweed (common ragweed, Ambrosia elatior), ryegrass, Italian (Italian ryegrass, Lolium multiflorum), crabgrass, large (Digitaria sanguinalis), giant foxtail (Setaria faberii), green foxtail (Setaria viridis), morningglory (Ipomoea spp.), pigweed (Amaranthus retroflexus), velvetleaf (Abutilon theophrasti), wheat (Triticum aestivum), and corn (Zea mays) were planted into a blend of loam soil and sand and treated preemergence with a directed soil spray using test chemicals formulated in anon-phytotoxic solvent mixture which included a surfactant.
(§2) At the same time, plants selected from these crop and weed species and also blackgrass (Alopecurus myosuroides), and Galium (catchweed bedstraw, Galium aparine) were planted in pots containing the same blend of loam soil and sand and treated with postemergence applications of test chemicals formulated in the same manner. Plants ranged in height from 2 to 10 cm and were in the one- to two-leaf stage for the postemergence treatment. Treated plants and untreated controls were maintained in a greenhouse for approximately 10 d, after which time all treated plants were compared to untreated controls and visually evaluated for injury. Plant response ratings, summarized in Table A, are based on a 0 to 100 scale where 0 is no effect and 100 is complete control. A dash (-) response means no test result.

[2] = test system: pigweed (Amaranthus retroflexus); assay: Test A preemergence; conditions: for Pigweed plant response rating: 0 to 100 scale where 0 is no effect and 100 is complete control; for Plant response rating, Pigweed: 125 g ai/ha, 0 to 100 scale (0 no effect, 100 complete control)
Description: as §1, §2

[3] = test system: ragweed (common ragweed, Ambrosia elatior); assay: Test A preemergence; conditions: for Ragweed plant response rating: 0 to 100 scale where 0 is no effect and 100 is complete control; for Plant response rating, Ragweed: 125 g ai/ha, 0 to 100 scale (0 no effect, 100 complete control)
Description: as §1, §2

[4] = test system: giant foxtail (Setaria faberii); assay: Test A preemergence; conditions: for Foxtail, Giant plant response rating: 0 to 100 scale where 0 is no effect and 100 is complete control; for Plant response rating, Foxtail, Giant: 125 g ai/ha, 0 to 100 scale (0 no effect, 100 complete control)
Description: as §1, §2

[5] = test system: barnyardgrass (Echinochloa crus-galli); assay: Test A preemergence; conditions: for Barnyardgrass plant response rating: 0 to 100 scale where 0 is no effect and 100 is complete control; for Plant response rating, Barnyardgrass: 125 g ai/ha, 0 to 100 scale (0 no effect, 100 complete control)
Description: as §1, §2

[6] = test system: ryegrass, Italian (Italian ryegrass, Lolium multiflorum); assay: Test A preemergence; conditions: Preemergence; for Plant response rating, Ryegrass, Italian: 125 g ai/ha, 0 to 100 scale (0 no effect, 100 complete control)
Description: as §1, §2

[7] = test system: sedge, umbrella (small-flower umbrella sedge, Cyperus difformis); assay: Test B flooded paddy test; conditions: Flood, 250 g ai/ha; visually evaluated after 13 to 15 d
Protocol: (§3) Plant species in the flooded paddy test selected from rice (Oryra sativa), sedge, umbrella (small-flower umbrella sedge, Cyperus difformis), ducksalad (Heteranthera limosa), and barnyardgrass (Echinochloa crus-galli) were grown to the 2-leaf stage for testing. At time of treatment, test pots were flooded to 3 cm above the soil surface, treated by application of test compounds directly to the paddy water, and then maintained at that water depth for the duration of the test. Treated plants and controls were maintained in a greenhouse for 13 to 15 d, after which time all species were compared to controls and visually evaluated. Plant response ratings, summarized in Table B, are based on a scale of 0 to 100 where 0 is no effect and 100 is complete control. A dash (-) response means no test result.

rice (Oryra sativa) = assay: Test B flooded paddy test; conditions: 250 g ai/ha, Flood
Protocol: as §3

[8] = test system: barnyardgrass (Echinochloa crus-galli); assay: Test B flooded paddy test; conditions: 250 g ai/ha, Flood
Protocol: as §3

[9] = test system: ducksalad (Heteranthera limosa); assay: Test B flooded paddy test; conditions: 250 g ai/ha, Flood
Protocol: as §3

Kochia (Kochia scoparia) [10] = assay: Test A postemergence; conditions: Postemergence
Description: as §1, §2

[11] = test system: pigweed (Amaranthus retroflexus); assay: Test A postemergence; conditions: Postemergence
Description: as §1, §2

[12] = test system: blackgrass (Alopecurus myosuroides); assay: Test A postemergence; conditions: Postemergence
Description: as §1, §2

[13] = test system: ragweed (common ragweed, Ambrosia elatior); assay: Test A postemergence; conditions: Postemergence
Description: as §1, §2

[14] = test system: Galium (catchweed bedstraw, Galium aparine); assay: Test A postemergence; conditions: Postemergence
Description: as §1, §2

corn (Zea mays) = assay: Test A postemergence; conditions: Postemergence
Description: as §1, §2

[15] = test system: giant foxtail (Setaria faberii); assay: Test A postemergence; conditions: Postemergence
Description: as §1, §2

[16] = test system: wheat (Triticum aestivum); assay: Test A postemergence; conditions: Postemergence
Description: as §1, §2

[17] = test system: ryegrass, Italian (Italian ryegrass, Lolium multiflorum); assay: Test A postemergence; conditions: Postemergence
Description: as §1, §2

[18] = test system: barnyardgrass (Echinochloa crus-galli); assay: Test A postemergence; conditions: Postemergence
Description: as §1, §2

[19] = 0 to 100 scale where 0 is no effect and 100 is complete control
[20] = 125 g ai/ha, visual rating about 10 d after treatment
[21] = 500 g ai/ha, visual injury, 0 to 100 scale (0 no effect, 100 complete control), approx. 10 d
[22] = visually evaluated after 13 to 15 d
[23] = 31 g ai/ha, 0 is no effect, 100 is complete control

In the case of `Cc1cc([C@H]2CN(C)C(=O)[C@@H]2C(=O)Nc2ccccc2[S+](C)[O-])ccc1F` (stereo partly shown) [Compound 1314], the “Kochia plant response rating” value (Kochia (Kochia scoparia) [1]; 500 g ai/ha, preemergence) is reported as 80, the “Plant response rating, Kochia” value (Kochia (Kochia scoparia) [1]; Preemergence) is reported as 80 and the “Pigweed plant response rating” value ([2]; 500 g ai/ha, preemergence) is reported as 70. For the same molecule, the “Plant response rating, Pigweed” value ([2]; Preemergence) was 0, the “Ragweed plant response rating” value ([3]; 500 g ai/ha, preemergence) was 100 and the “Plant response rating, Ragweed” value ([3]; Preemergence) was 80. The “Foxtail, Giant plant response rating” value ([4]; 500 g ai/ha, preemergence) was 100, the “Plant response rating, Foxtail, Giant” value ([4]; Preemergence) was 90 and the “Barnyardgrass plant response rating” value ([5]; 500 g ai/ha, preemergence) was 100. The “Plant response rating, Barnyardgrass” value ([5]; Preemergence) was 100, the “Plant response rating, Ryegrass, Italian” value [6] was 20 and the “Plant response rating, Sedge, Umbrella (0 to 100 scale where 0 is no effect and 100 is complete control)” value [7] was 0. The “Rice plant response rating” value (rice (Oryra sativa); [19]) was 0, the “Barnyardgrass plant response rating” value [8, 19] was 65 and the “Ducksalad plant response rating” value [9, 19] was 100. The “Kochia plant response rating (0 to 100 scale)” value (Kochia (Kochia scoparia) [10]; [20]) was 50, the “Plant response rating, Kochia” value (Kochia (Kochia scoparia) [10]; [21]) was 60 and the “Pigweed plant response rating (0 to 100 scale)” value [11, 20] was 0. For the same molecule, the “Plant response rating, Pigweed” value [11, 21] was 30, the “Blackgrass plant response rating (0 to 100 scale)” value (from here on “Blackgrass plant response rating”) [12, 20] was 0 and the “Plant response rating, Blackgrass” value [12, 21] was 60. The “Ragweed plant response rating (0 to 100 scale)” value [13, 20] was 0, the “Plant response rating, Ragweed” value [13, 21] was 50 and the “Galium plant response rating (0 to 100 scale)” value [14, 20] was 30. The “Plant response rating, Galium” value [14, 21] was 50, the “Corn plant response rating (0 to 100 scale)” value (shortened to “Corn plant response rating”) (corn (Zea mays); [20]) was 30 and the “Plant response rating, Corn” value (corn (Zea mays); [21]) was 70. The “Foxtail, Giant plant response rating (0 to 100 scale)” value (from here on “Foxtail … (0 to 100 scale)”) [15, 20] was 90, the “Plant response rating, Foxtail, Giant” value [15, 21] was 90 and the “Wheat plant response rating (0 to 100 scale)” value (“Wheat plant response rating” for short) [16, 20] was 20. The “Plant response rating, Wheat” value [16, 21] was 60, the “Ryegrass, Italian plant response rating (0 to 100 scale)” value (from here on “Ryegrass … (0 to 100 scale)”) [17, 20] was 0 and the “Plant response rating, Ryegrass, Italian” value [17, 21] was 0.

For `CN1C[C@H](c2ccc3c(c2)OC(F)(F)O3)[C@@H](C(=O)Nc2cccc([N+](=O)[O-])c2)C1=O` [Compound 1353], the “Kochia plant response rating” value (Kochia (Kochia scoparia) [1]; 31 g ai/ha, Preemergence) was 60, the “Plant response rating, Kochia” value (Kochia (Kochia scoparia) [1]; Preemergence) was 80 and the “Pigweed plant response rating” value ([2]; 31 g ai/ha, Preemergence) was 0. For the same molecule, the “Plant response rating, Pigweed” value ([2]; Preemergence) was 30, the “Ragweed plant response rating” value ([3]; 31 g ai/ha, Preemergence) was 40 and the “Plant response rating, Ragweed” value ([3]; Preemergence) was 0. For the same molecule, the “Foxtail, Giant plant response rating” value ([4]; 31 g ai/ha, Preemergence) was 80, the “Plant response rating, Foxtail, Giant” value ([4]; Preemergence) was 100 and the “Barnyardgrass plant response rating” value ([5]; 31 g ai/ha, Preemergence) was 0. The “Plant response rating, Barnyardgrass” value ([5]; Preemergence) was 70, the “Ryegrass, Italian plant response rating” value ([6]; 31 g ai/ha, 0 to 100 scale where 0 is no effect and 100 is complete control) was 10 and the “Plant response rating, Ryegrass, Italian” value [6] was 20. For the same molecule, the “Plant response rating, Sedge, Umbrella (0 to 100 scale where 0 is no effect and 100 is complete control)” value [7] was 0, the “Plant response rating, Rice (0 to 100 scale where 0 is no effect and 100 is complete control)” value (rice (Oryra sativa); [22]) was 0 and the “Plant response rating, Barnyardgrass (0 to 100 scale where 0 is no effect and 100 is complete control)” value [8, 22] was 60. For the same molecule, the “Plant response rating, Ducksalad (0 to 100 scale where 0 is no effect and 100 is complete control)” value [9, 22] was 40, the “Kochia plant response rating (0 to 100 scale)” value (Kochia (Kochia scoparia) [10]; [20]) was 20 and the “Kochia plant response rating (0 to 100 scale)” value (Kochia (Kochia scoparia) [10]; [23]) was 0. The “Pigweed plant response rating (0 to 100 scale)” value [11, 20] was 20, the “Pigweed plant response rating (0 to 100 scale)” value [11, 23] was 0 and the “Blackgrass plant response rating” value [12, 20] was 20. For the same molecule, the “Blackgrass plant response rating” value [12, 23] was 0, the “Ragweed plant response rating (0 to 100 scale)” value [13, 20] was 0 and the “Ragweed plant response rating (0 to 100 scale)” value [13, 23] was 0. For the same molecule, the “Corn plant response rating” value (corn (Zea mays); [20]) was 0, the “Corn plant response rating” value (corn (Zea mays); [23]) was 0 and the “Foxtail … (0 to 100 scale)” value [15, 20] was 70. The “Foxtail … (0 to 100 scale)” value [15, 23] was 30, the “Wheat plant response rating” value [16, 20] was 0 and the “Wheat plant response rating” value [16, 23] was 0. The “Barnyardgrass plant response rating (0 to 100 scale, 0 no effect, 100 complete control)” value [18, 20] was 90, the “Barnyardgrass plant response rating (0 to 100 scale)” value [18, 23] was 40 and the “Ryegrass … (0 to 100 scale)” value [17, 20] was 0. For the same molecule, the “Ryegrass … (0 to 100 scale)” value [17, 23] was 0.
